IC50 data for 4 compounds are collected here from ChEMBL document CHEMBL1130652, “Design, synthesis and biological activity of a pyrrolo [2,1-c][1,4]benzodiazepine (PBD)-distamycin hybrid” (Bioorg Med Chem Lett, 1998).

Assay [1] deals with Nucleic Acid. As to the kind of experiment: Inhibition of human estrogen receptor(ER) polymerase-chain reaction product. It is filed as functional.
Assay [2] relates to K562. The assay can be described thus: In vitro effect on human leukemia K562 cell proliferation. It is filed as functional, cell-based.

Regarding `COC(=O)CCOc1cc2c(cc1OC)C(=O)N1CCC[C@H]1C=N2.Cn1cc(NC(=O)c2cc(NC(=O)c3cc(NC=O)cn3C)cn2C)cc1C(=O)NCCC(=N)N`, the results for the IC50 in assay [1] and in assay [2] were 50 µM and 1 µM, respectively.
The matching figures for `COc1cc2c(cc1OCCC(=O)Nc1cc(C(=O)Nc3cc(C(=O)Nc4cc(C(=O)NCCC(=N)N)n(C)c4)n(C)c3)n(C)c1)N=C[C@@H]1CCCN1C2=O`: 8 µM and 0.2 µM.
The matching figures for `COC(=O)CCOc1cc2c(cc1OC)C(=O)N1CCC[C@H]1C=N2`: > 300 µM and 1 µM.
The matching figures for `Cn1cc(NC(=O)c2cc(NC(=O)c3cc(NC=O)cn3C)cn2C)cc1C(=O)NCCC(=N)N` [STALLIMYCIN]: 50 µM and 5 µM.

The term IC50 denotes the point on the concentration scale where inhibition reaches its midpoint. Read a low IC50 as higher potency.
